One test relates to THP-1 cells. Briefly: FACS based CD11B induction assay in THP-1. The class given is cell-based. As to conditions: Homo sapiens; THP-1, 96 hr; read-out: EC50 induction of differentiation marker CD11B. Here is the method:
Human leukemic THP1 (ACC-16) cells ([…]) were obtained from DMSZ and maintained in RPMI 1640 medium (Cat# R0883; Sigma Aldrich) supplemented with 10 % heat inactivated fetal bovine serum (FBS; Cat# F9665; Sigma-Aldrich) and 2 mM Glutamine (Cat# X0550 Biowest).
THP-1 cells are acute leukemia cells with blast phenotype that can be induced to differentiate into a monocyte/macrophage phenotype by cell penetrant KDM1A inhibitors. Differentiation can be followed by measurement of induction of differentiation surface markers like CD11B. Cells were treated for 96 hr with KDM1A inhibitors. Fluorescent assisted cell sorting (FACS) analysis of CD11B expression was performed on 1.5 x 10^5 THP-1 cells (obtained from German Collection of microorganism and Cell Cultures; ACC-16) using a phycoerythrin-conjugated human CD11B-specific mouse monoclonal antibody (eBiosciences, #12-0118) at dilution 1:5 on a cytomics FC500 (Beckman Coulter) with FlowJo software. The mouse IgG1 K isotype (eBiosciences, #12-4714) was used as a control antibody. Concentration-response curves were determined out by assaying inhibitors at concentrations ranging between 0.32 and 200 nM.

Test [1] deals with SAMP8 mice. Nature of the test: Resident Intruder (RI) test, SAMP8. The class given is in vivo, mouse. As to conditions: 0.32 or 0.96 mg/kg/day for 5 weeks, male. Here is the method:
(§1) Both male and female mice from the senescence accelerated strain SAMP8 and its control SAMR1 of different ages (see Table S3 for details) were used in these studies. Mice were breed in the animal facilities of the Pharmacy Faculty (University of Barcelona), maintained in a at 22 ± 2 °C controlled temperature in a 12 hr light / dark cycle (lights on at 8:00 am; 300 lux/0 lux) with ad libitum access to food (2018 TEKLAD, Harlan) and water. Male mice were housed individually (males) or in groups of 4-5 animals (females) in plastic colony boxes with a sawdust bedding material. […] SAMR1 mice treated with vehicle were included as a control. All drugs were administered via drinking water and diluted in vehicle. Drug concentration was calculated weekly in function of body weight and corrected in function of drinking water consumption. Cognitive function was evaluated by NORT, social behavior was evaluated by RI and anxiety and motor function were evaluated by EPM and OF. When necessary, animals were deeply anesthetized (80 mg/kg sodium pentobarbital) and brain samples (hippocampus, (prefrontal) cortex) were micro-dissected and processed according to the downstream analysis.
The protocol was modified from previously described. Briefly, the test subject (resident) was maintained in its home cage without bedding changes for one week. […] In mice the session was video-recorded for 20 min and social interaction (social interaction and rearings) and aggressive behavior (lateral threats, clinch attacks, keep-down behavior) were analyzed. […] In rats the session was video recorded for 15 min and social interaction (active and passive social interaction, number of evitations and time without social interaction) were analyzed. […] In addition, the time spent without social interaction was also measured.
Resident Intruder (RI): Mice were video-recorded for 20 min and social interaction and aggressive behavior were analyzed. Rats were video recorded for 15 min and social interaction (active and passive social interaction, number of evitations and time without social interaction) were analyzed.

The target of the next test is T1, PDE3A (h) (Homo sapiens, UniProt Q14432).
T1 construct: purchased CEREP (Eurofins Cerep)
Briefly: CEREP Diversity Panel. The class given is biochemical. Here is the method: […]. MAO-A inhibition at 10 μM was 37%, in line with internal data.

Another test concerns KDM1A. Nature of the test: Ex vivo KDM1A target engagement in rat brain and PBMCs. Also noted: species or system Sprague-Dawley rats. Here is the method: . Native protein extracts of cells or tissues were obtained in presence of 25 nM OG-881 chemoprobe according the protocol described in Mascaró et al..
Luminescent ELISA: for quantification of total amount of KDM1A protein (TOTAL KDM1A), Luminunc Plates Maxisorp (NUNC; #436110) were coated with a monoclonal anti-KDM1A antibody (Abcam; #ab53269) at 2 µg/mL in PBS. For quantification of the fraction not bound to inhibitor (FREE KDM1A), plates were coated with streptavidin (Promega Biotech Ibérica; #Z7041) at 10 µg/mL in PBS. Coating was performed at 4°C O/N. Wells were washed 3 times in PBS, 0.1% Tween-20 and blocked with PBS-BSA 1% (Sigma; #A3059) for 2 hr. A KDM1A calibration curve of full length rKDM1A (Active Motif; #31334) diluted in PBS was included in each plate. Plates were then incubated 1 hr at RT and washed 5 times. […] Plates were centrifuged during 30 sec to 1,500 x g, shaken for 1 min at 100rpm and incubated inside the micropate reader (Infinite 200, Tecan) for 3 min at 25 °C. The relative luminescence units (RLU) readouts were acquired using a 1000 msec integration time and 150 msec settle time.
. […] After raw data processing (robust elimination of outliers according to Grubbs criteria and subtraction of blank signal on technical replicates), the target engagement was calculated as […]

In test [2] the test system is SAMP8 mice. Nature of the test: Elevated Plus Maze (EPM), SAMP8. The class given is in vivo, mouse. As to conditions: 0.32 or 0.96 mg/kg/day. Here is the method:
as §1, with “All drugs were administered via drinking water and diluted in vehicle.” left out, “When necessary, animals were deeply anesthetized (80 mg/kg sodium pentobarbital) and brain samples (hippocampus, (prefrontal) cortex) were micro-dissected and processed according to the downstream analysis.” left out
The EPM consisted of four arms at right angles to each other connected to a central square and maintained elevated 50 cm above the floor. […] The animal was placed facing a closed arm, and its movements were video-recorded for 5 min and analyzed by video-tracking using SMART® (v3.0, PanLab, SLU, Spain).
Elevated Plus Maze (EPM): Movements were video-recorded for 5 min and analyzed by video-tracking using SMART® (v3.0, PanLab, SLU, Spain).

T1 sequence (Q14432 whole entry): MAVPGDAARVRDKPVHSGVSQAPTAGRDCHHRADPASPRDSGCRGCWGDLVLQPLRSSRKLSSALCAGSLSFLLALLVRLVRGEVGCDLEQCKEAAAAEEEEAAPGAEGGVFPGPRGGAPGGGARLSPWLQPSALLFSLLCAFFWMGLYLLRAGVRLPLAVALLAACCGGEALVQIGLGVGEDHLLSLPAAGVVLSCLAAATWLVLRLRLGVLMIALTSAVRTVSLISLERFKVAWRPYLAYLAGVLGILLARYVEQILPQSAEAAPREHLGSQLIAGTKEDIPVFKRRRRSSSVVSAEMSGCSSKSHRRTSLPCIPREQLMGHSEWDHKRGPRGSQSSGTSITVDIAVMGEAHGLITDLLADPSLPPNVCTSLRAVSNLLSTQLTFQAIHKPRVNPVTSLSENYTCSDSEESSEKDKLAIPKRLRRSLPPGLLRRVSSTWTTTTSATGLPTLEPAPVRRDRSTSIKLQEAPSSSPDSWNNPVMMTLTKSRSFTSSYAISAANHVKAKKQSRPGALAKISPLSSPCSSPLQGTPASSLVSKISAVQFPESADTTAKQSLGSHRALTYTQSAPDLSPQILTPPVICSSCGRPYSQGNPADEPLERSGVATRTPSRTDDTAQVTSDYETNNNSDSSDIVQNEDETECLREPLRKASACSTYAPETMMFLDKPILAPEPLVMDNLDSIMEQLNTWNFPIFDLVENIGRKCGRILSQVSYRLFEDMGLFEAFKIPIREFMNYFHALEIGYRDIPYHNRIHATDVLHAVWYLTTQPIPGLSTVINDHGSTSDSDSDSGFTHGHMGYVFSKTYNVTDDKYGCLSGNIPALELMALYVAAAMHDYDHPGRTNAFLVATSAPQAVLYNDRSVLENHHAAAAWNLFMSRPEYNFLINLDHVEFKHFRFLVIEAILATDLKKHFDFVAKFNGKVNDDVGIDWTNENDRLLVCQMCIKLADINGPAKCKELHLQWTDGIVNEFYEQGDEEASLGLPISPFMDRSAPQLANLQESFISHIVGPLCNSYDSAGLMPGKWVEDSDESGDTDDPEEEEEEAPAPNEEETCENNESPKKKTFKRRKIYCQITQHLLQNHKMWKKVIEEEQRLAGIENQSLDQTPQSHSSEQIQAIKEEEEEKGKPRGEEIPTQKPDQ

Turning to `Nc1nnc(CN[C@@H]2C[C@H]2c2ccc(OCc3ccccc3)cc2)o1` [ORY-2001, vafidemstat], in the test with THP-1 cells, the EC50 (commonly the concentration at which the effect is half-maximal) was 21 nM. In the test on SAMP8 mice [1], the latency to attack result was “tendency to increase the latency to attack”; the “number of attacks and clinch attacks” value is “lowered to SAMR1 levels”; the “time in social interactions and number of rearings” value is “No significant strain- or treatment-differences”. Testing at 10 µM against PDE3A (h) gave an inhibition of 1%. In addition, the “time for brain target engagement levels to return to baseline” value in the test with KDM1A (S2B Fig) is ~ 3 days. The “time to maximum target engagement” value with KDM1A (rat PBMCs and brain, days of administration) stood at 5 days. For the same compound, the “time in the open arms of the EPM” value in the test with SAMP8 mice [2] was “not significantly modified”.

The record behind these values is PMC7259601 (PLoS ONE, 2020).
